Test results published in patent US6855710B2, “Substituted indolines with an inhibitory effect on various kinases and complexes of CDKs” (Boehringer Ingelheim Pharma KG, priority 1998, dated 2005).

In the case of `CN(C)CCN(c1ccc(N/C(=C2\C(=O)Nc3ccc([N+](=O)[O-])cc32)c2ccccc2)cc1)S(=O)(=O)Cc1ccccc1` [Example 313, (Z)-3-{1-[4-(N-(2-dimethylaminoethyl)-N-benzylsulphonyl-amino)-phenylamino]-1-phenyl-methylidene}-5-nitro-2-indolinone], the melting point is reported as 248 °C. In the case of `CC(C)(C)OC(=O)NCCc1ccc(N/C(=C2\C(=O)Nc3ccc([N+](=O)[O-])cc32)c2ccccc2)cc1` [Example 127, (Z)-3-{1-[4-(2-tert.butoxycarbonylamino-ethyl)-phenylamino]-1-phenyl-methylidene}-5-nitro-2-indolinone], the melting point is reported as 213 to 214 °C. In the case of `CN(C(=O)CNCCN1CCOCC1)c1ccc(N/C(=C2\C(=O)Nc3ccccc32)c2ccccc2)cc1` [Example 373, (Z)-3-{1-[4-(N-(2-morpholinoethylaminomethylcarbonyl)-N-methyl-amino)-phenylamino]-1-phenyl-methylidene}-2-indolinone], the melting point is reported as 117 to 119 °C. Work on `CN1CCN(CCc2ccc(N/C(=C3\C(=O)Nc4ccc([N+](=O)[O-])cc43)c3ccccc3)cc2)CC1` [Example 135, (Z)-3-{1-[4-(2-(4-methylpiperazino)-ethyl)-phenylamino]-1-phenyl-methylidene}-5-nitro-2-indolinone] yielded a melting point of 238 to 240 °C. In the case of `CN(C)C(=O)CCNCc1cccc(N/C(=C2\C(=O)Nc3ccc([N+](=O)[O-])cc32)c2ccccc2)c1` [Example 253, (Z)-3-{1-[3-(2-dimethylaminocarbonyl-ethylaminomethyl)-phenylamino]-1-phenyl-methylidene}-5-nitro-2-indolinone], the melting point is reported as 177 to 179 °C. `CN(C)C(=O)CN(C(=O)c1ccccc1)c1ccc(N/C(=C2\C(=O)Nc3ccccc32)c2ccccc2)cc1` [Example 363, (Z)-3-{1-[4-(N-dimethylaminocarbonylmethyl-N-benzoyl-amino)-phenylamino]-1-phenyl-methylidene}-2-indolinone] showed a melting point of 284 to 287 °C. With `CN(C)CCN(C)S(=O)(=O)c1ccc(N/C(=C2\C(=O)Nc3ccccc32)c2ccccc2)cc1` [Example 400, (Z)-3-{1-[4-(N-(2-dimethylaminoethyl)-N-methyl-aminosulphonyl)-phenylamino]-1-phenyl-methylidene}-2-indolinone] the melting point was 200 to 203 °C. In the case of `CNC(=O)c1cccc(N/C(=C2\C(=O)Nc3ccccc32)c2ccccc2)c1` [Example 21, (Z)-3-[1-(3-methylaminocarbonyl-phenylamino)-1-phenyl-methylidene]-2-indolinone], the melting point is reported as 250 to 252 °C. Work on `COC1CCN(Cc2ccc(N/C(=C3\C(=O)Nc4ccc([N+](=O)[O-])cc43)c3ccccc3)cc2)CC1` [Example 171, (Z)-3-{1-[4-(4-methoxypiperidinomethyl)-phenylamino]-1-phenyl-methylidene}-5-nitro-2-indolinone] yielded a melting point of 204 to 206 °C. For `NC(=O)c1cccc(N/C(=C2\C(=O)Nc3ccccc32)c2ccccc2)c1` [Example 10, (Z)-3-{1-[3-(aminocarbonyl)phenylamino]-1-phenyl-methylidene}-2-indolinone], the melting point was 258 to 263 °C. For `CN(C)CC(=O)Nc1ccc(N/C(=C2\C(=O)Nc3ccc([N+](=O)[O-])cc32)c2ccccc2)cc1` [Example 94, (Z)-3-[1-(4-dimethylaminomethylcarbonylamino-phenylamino)-1-phenyl-methylidene]-5-nitro-2-indolinone], the melting point was 254 to 257 °C. `CN(C)CCS(=O)(=O)Nc1ccc(N/C(=C2\C(=O)Nc3ccccc32)c2ccccc2)cc1` [Example 379, (Z)-3-{1-[4-(2-dimethylamino-ethylsulphonylamino)-phenylamino]-1-phenyl-methylidene}-2-indolinone] showed a melting point of 214 to 216 °C. With `CCCC(=O)N(CCN1CCOCC1)c1ccc(N/C(=C2\C(=O)Nc3ccccc32)c2ccccc2)cc1` [Example 351, (Z)-3-{1-[4-(N-(2-morpholinoethyl)-N-propylcarbonyl-amino)-phenylamino]-1-phenyl-methylidene}-2-indolinone] the melting point was 219 °C. Work on `CN(C)CCOc1ccc(N/C(=C2\C(=O)Nc3ccccc32)c2ccccc2)cc1` [Example 284, (Z)-3-{1-[4-(2-dimethylaminoethyloxy)-phenylamino]-1-phenyl-methylidene}-2-indolinone] yielded a melting point of 258 to 260 °C. With `O=CNc1ccc(N/C(=C2\C(=O)Nc3ccc([N+](=O)[O-])cc32)c2ccccc2)cc1` [Example 92, (Z)-3-[1-(4-formylamino-phenylamino)-1-phenyl-methylidene]-5-nitro-2-indolinone] the melting point was 355 to 356 °C (dec.). `CN(C)C(=O)CCNCc1ccc(N/C(=C2\C(=O)Nc3ccc([N+](=O)[O-])cc32)c2ccccc2)cc1` [Example 243, (Z)-3-{1-[4-(2-dimethylaminocarbonyl-ethylaminomethyl)-phenylamino]-1-phenyl-methylidene}-5-nitro-2-indolinone] showed a melting point of 215 to 217 °C. `CCS(=O)(=O)N(CC(=O)NCCN(C)C)c1ccc(N/C(=C2\C(=O)Nc3ccccc32)c2ccccc2)cc1` [Example 301, (Z)-3-{1-[4-(N-(2-dimethylamino-ethylaminocarbonylmethyl)-N-ethylsulphonyl-amino)-phenylamino]-1-phenyl-methylidene}-2-indolinone] gave a melting point of 203 °C. In the case of `COCCNC(=O)c1ccc(N/C(=C2\C(=O)Nc3ccccc32)c2ccccc2)cc1` [Example 388, (Z)-3-{1-[4-(2-methoxyethylaminocarbonyl)-phenylamino]-1-phenyl-methylidene}-2-indolinone], the melting point is reported as 277 to 279 °C. `CCCC(=O)N(CCN(C)C)c1ccc(N/C(=C2\C(=O)Nc3ccccc32)c2ccccc2)cc1` [Example 343, (Z)-3-{1-[4-(N-(2-dimethylaminoethyl)-N-propylcarbonyl-amino)-phenylamino]-1-phenyl-methylidene}-2-indolinone] showed a melting point of 268 to 270 °C. Work on `CN(CC(=O)O)S(=O)(=O)c1ccc(N/C(=C2\C(=O)Nc3ccc([N+](=O)[O-])cc32)c2ccccc2)cc1` [Example 414, (Z)-3-{1-[4-(N-carboxymethyl-N-methyl-aminosulphonyl)-phenylamino]-1-phenyl-methylidene}-5-nitro-2-indolinone] yielded a melting point of 259 to 260 °C. With `CN(C)CCN(C)S(=O)(=O)c1ccc(N/C(=C2\C(=O)Nc3ccc([N+](=O)[O-])cc32)c2ccccc2)cc1` [Example 402, (Z)-3-{1-[4-(N-(2-dimethylaminoethyl)-N-methyl-aminosulphonyl)-phenylamino]-1-phenyl-methylidene}-5-nitro-2-indolinone] the melting point was 215 to 218 °C. In the case of `CC(=O)NCC(=O)Nc1ccc(N/C(=C2\C(=O)Nc3ccccc32)c2ccccc2)cc1` [Example 368, (Z)-3-{1-[4-(acetylaminomethylcarbonylamino)-phenylamino]-1-phenyl-methylidene}-2-indolinone], the melting point is reported as 245 to 247 °C. Molecule `CC(C)(C)OC(=O)NCC(=O)NCc1ccc(N/C(=C2\C(=O)Nc3ccccc32)c2ccccc2)cc1` [Example 57, (Z)-3-[1-(4-tert.butoxycarbonylaminomethylcarbonylaminomethyl-phenylamino)-1-phenyl-methylidene}-2-indolinone] has a melting point of 218 to 220 °C. With `O=C1Nc2ccccc2/C1=C(/Nc1ccc(OCCN2CCCCC2)cc1)c1ccccc1` [Example 285, (Z)-3-{1-[4-(2-piperidinoethyloxy)-phenylamino]-1-phenyl-methylidene}-2-indolinone] the melting point was 198 to 200 °C. Work on `CN(C)C(=O)CNS(=O)(=O)c1ccc(N/C(=C2\C(=O)Nc3ccc([N+](=O)[O-])cc32)c2ccccc2)cc1` [Example 412, (Z)-3-{1-[4-(dimethylaminocarbonylmethylaminosulphonyl)-phenylamino]-1-phenyl-methylidene}-5-nitro-2-indolinone] yielded a melting point of 281 to 283 °C. For `O=C(O)CNS(=O)(=O)c1ccc(N/C(=C2\C(=O)Nc3ccc([N+](=O)[O-])cc32)c2ccccc2)cc1` [Example 411, (Z)-3-{1-[4-(carboxymethylaminosulphonyl)-phenylamino]-1-phenyl-methylidene}-5-nitro-2-indolinone], the melting point was 177 to 180 °C (dec.). In the case of `CC(C)CNCc1ccc(N/C(=C2\C(=O)Nc3ccc([N+](=O)[O-])cc32)c2ccccc2)cc1` [Example 164, (Z)-3-[1-(4-isobutylaminomethyl-phenylamino)-1-phenyl-methylidene]-5-nitro-2-indolinone], the melting point is reported as 208 °C. For `CC(=O)NCCc1ccc(N/C(=C2\C(=O)Nc3ccc([N+](=O)[O-])cc32)c2ccccc2)cc1` [Example 129, (Z)-3-{1-[4-(2-acetylamino-ethyl)-phenylamino]-1-phenyl-methylidene}-5-nitro-2-indolinone], the melting point was 306 to 307 °C. Work on `O=C(CN1CCOCC1)Nc1ccc(N/C(=C2\C(=O)Nc3ccc([N+](=O)[O-])cc32)c2ccccc2)cc1` [Example 96, (Z)-3-[1-(4-morpholinomethylcarbonylamino-phenylamino)-1-phenyl-methylidene]-5-nitro-2-indolinone] yielded a melting point of 265 to 267 °C. With `COCCNCC(=O)N(C)c1ccc(N/C(=C2\C(=O)Nc3ccccc32)c2ccccc2)cc1` [Example 371, (Z)-3-{1-[4-(N-(2-methoxyethylaminomethylcarbonyl)-N-methyl-amino)-phenylamino]-1-phenyl-methylidene}-2-indolinone] the melting point was 186 to 188 °C. `CN(C)CCN(C)C(=O)CN(c1ccc(N/C(=C2\C(=O)Nc3ccccc32)c2ccccc2)cc1)S(C)(=O)=O` [Example 293, (Z)-3-{1-[4-(N—((N-(2-dimethylaminoethyl)-N-methyl-amino)-carbonylmethyl)-N-methylsulphonyl-amino)-phenylamino]-1-phenyl-methylidene}-2-indolinone] gave a melting point of 170 °C. Molecule `CC(=O)N(CCN(C)C)c1ccc(N/C(=C2\C(=O)Nc3ccccc32)c2ccccc2)cc1` [Example 340, (Z)-3-{1-[4-(N-(2-dimethylaminoethyl)-N-acetyl-amino)-phenylamino]-1-phenyl-methylidene}-2-indolinone] has a melting point of 197 to 199 °C. `O=C1Nc2ccc([N+](=O)[O-])cc2/C1=C(/Nc1ccc(CN2CCCCC2)cc1)c1ccc(C(=O)O)cc1` [Example 445, (Z)-3-[1-(4-piperidinomethyl-phenylamino)-1-(4-carboxyphenyl)-methylidene]-5-nitro-2-indolinone] showed a melting point of 230 °C.
